Assay results: the CATMoS acute toxicity set (Mansouri et al. 2021)

Test: GHS categories as the set defines them, by LD50: 1 up to 5, 2 up to 50, 3 up to 300, 4 up to 2000, 5 above 2000 mg/kg
Settings: rat; in vivo; po

SMILES	GHS category
CC(=O)[C@H]1CC[C@H]2[C@@H]3C=CC4=CC(=O)CC[C@@]4(C)[C@@H]3CC[C@]12C	5
CCOC(C)C(C=NNC(N)=S)=NNC(N)=S (stereo unspecified)	5
CCCCCCCCCCOCCN1CCCC1=O	5
COC(=O)[C@]1(C)CCC[C@@]2(C)[C@H]1CC=C1C=C(C(C)C)CC[C@@H]12	5
CCOC(=O)C(=O)Nc1cc(OCCOCc2ccccc2)nc(C)n1	4
CCC(=NOC/C=C/Cl)C1=C(O)CC(C2CCOCC2)CC1=O (stereo unspecified)	5
COc1ccc(C2(c3ccc(OC)c(C)c3)NC(=O)NC2=O)cc1 (stereo unspecified)	5
CO[Si](C)(OC)OC	5
C/C=C/C(=O)OC	5
CCOC(=O)c1cc(Cl)ccc1OC(N)=O	5
CCCCC(CC)COC(=O)c1ccccc1O (stereo unspecified)	5
C=COCC1CCC(COC=C)CC1 (stereo unspecified)	5
CC1NC(=S)C(C(O)O)C(O)C1C (stereo unspecified)	5
O=C(C=Cc1ccccc1)OCCCc1ccccc1	5
Nc1ccc2oc(N)nc2c1	4
ClC1C(Br)C(Br)C(Br)C(Br)C1Br (stereo unspecified)	5
COc1cc(Cl)c(OC)cc1Cl	5
C[C@@H](O)[C@H]1C(=O)N2C(C(=O)O)=C(SCCNC=N)C[C@H]12	5
CC=CCCC1CCCC(=O)O1 (stereo unspecified)	5
CCOC(=O)C(SP(=S)(OC)OC)C(SP(=S)(OC)OC)C(=O)OCC (stereo unspecified)	4
COC(=O)Nc1nc2cc(Sc3ccccc3)ccc2[nH]1	5

SMILES	GHS category
CCCCCCCCCC(=O)N(C)C	5
CCCOC(=O)c1sc(C(=O)OCCC)c(O)c1O	4
Cc1ccc(S(=O)(=O)NC(=O)NC(=O)C(Cl)(Cl)Cl)cc1	5
Cc1ccc2c([nH]c(=O)c3c(=O)cc(C(=O)OCCC(C)C)oc32)c1C	5
CCCCCCCC/C=C\CCCCCCCC(=O)OCC(COC(=O)CCCCCCC/C=C\CCCCCCCC)OC(=O)CCCCCCC/C=C\CCCCCCCC	5
Cc1cc(C(=O)Nc2cccc(C)c2C)n[nH]1	5
N#C[Se]Cc1ccc(C[Se]C#N)cc1	4
COc1ccc(CC(C)NCC(O)c2ccc(O)c(CO)c2)cc1 (stereo unspecified)	4
COc1cc(OC)c(NC(=O)c2cc3ccccc3cc2O)cc1Cl	5
COc1ccc2c(c1)c(CC(=O)NC1CCCC1)c(C)n2C(=O)c1ccc(Cl)cc1	5
CCOC(=O)COc1nn(-c2cccc(C(F)(F)F)c2)c2ncccc12	4
CC12CCC(=O)NC1=CCC1C2CCC2(C)C(C(=O)O)CCC12 (stereo unspecified)	5
CCCN(CCC)C(=O)C(CCC(=O)OCCOC(=O)COC(=O)Cc1c(C)n(C(=O)c2ccc(Cl)cc2)c2ccc(OC)cc12)NC(=O)c1ccccc1 (stereo unspecified)	4
CCC(C)c1cc(S(=O)(=O)O)cc(-n2nc3ccccc3n2)c1O (stereo unspecified)	5
CC(=O)O[C@@H]1C[C@H](C)CC[C@H]1C(C)C	5
CCN1C(=CC=CC=Cc2sc3ccccc3[n+]2CC)Sc2ccccc21	3
CCCCn1cc2c3c(cccc31)[C@@]1(OC)C[C@@H](COC(=O)c3cncc(Br)c3)CN(C)[C@@H]1C2	4
CC(=O)CC(=O)Nc1ccc(S(=O)(=O)O)cc1	5
CCCc1nc2ccnn2c(NCCN2CCOCC2)c1Cc1ccc(-c2ccccc2-c2nn[nH]n2)cc1	4
CCCCC(CC)COC(=O)c1ccc([N+](=O)[O-])cc1 (stereo unspecified)	5
O=[N+]([O-])c1cc2c(Nc3ccc(F)c(Cl)c3)ncnc2cc1O[C@H]1CCOC1	5

SMILES	GHS category
CCC(COC(=O)c1ccccc1C(=O)OCC(CC)CC(C)C)CC(C)C (stereo unspecified)	5
Cc1cccc2c1NC(=O)C2(c1ccc(OS(=O)(=O)O)cc1)c1ccc(OS(=O)(=O)O)cc1	5
O=C1CCc2c(cccc2OCCCN2CCC(Cc3ccccc3)CC2)N1	4
Nc1nc(N)nc(Nc2nc(N)nc(N)n2)n1	5
CCCCCCCC(=O)OCCC	5
CNc1cnn(-c2cccc(C(F)(F)F)c2)c(=O)c1Cl	5
CCOC(=O)C(C)O (stereo unspecified)	5
CCCCCNC(=O)c1cnc2cccc(C)n2c1=O	3
CCCCCCCCCCCCCC=O	5
C[C@@H]1CCN(C(=O)[C@H](CCCNC(=N)N)NS(=O)(=O)c2cccc3c2NC[C@H](C)C3)[C@@H](C(=O)O)C1	5
C=CCCCCCCCC(=O)N(C)C	4
CCCCCCCCCCCCCCCC(=O)NCC(=O)O	5
CNC(=O)c1sc(-c2ccc(OC)c(OC)c2)nc1C	5
C=CCCCCCCCC(=O)OC	5
O=S(=O)(O)c1cccc(N=Nc2ccc(N=Nc3ccc(Nc4ccccc4)c4c(S(=O)(=O)O)cccc34)c3ccccc23)c1	5
CCOC(=O)[C@H](CCc1ccccc1)N[C@@H](C)C(=O)N1CC2(C[C@H]1C(=O)O)SCCS2	5
c1ccc(Cn2ccnc2-c2nn[nH]n2)cc1	5
COC(=O)c1ccc(CNS(C)(=O)=O)cc1S(=O)(=O)NC(=O)Nc1nc(OC)cc(OC)n1	5
CC(C)OC(=O)c1ccccc1OC(N)=O	5
COCCCCC(=O)c1ccc(C(F)(F)F)cc1	5
CCCC(O)CCO (stereo unspecified)	5

SMILES	GHS category
CNc1ccc(C(=O)c2ccccc2)cc1O	5
O=C(CCn1cnc2c(=O)nc[nH]c21)Nc1ccc(C(=O)O)cc1	5
CCCCCCCNC(=O)c1cnc2cccc(C)n2c1=O	3
CC(C)CCOC(=O)C=Cc1ccccc1	5
CC(=O)Nc1ccc(NC(=O)c2cc3ccccc3cc2O)cc1	5
O=S(=O)(O)Cc1ccccc1	4
CC1(C)CC2(CC(C)(C)c3ccc(O)cc32)c2cc(O)ccc21	5
O=C(O)CC[C@@H](C(=O)O)N(CC(=O)O)CC(=O)O	5
CCCCOC(=O)c1ccc(C(=O)OCCCC)cc1	5
Clc1cc(Cl)c2oc(C3(Cn4cncn4)OCCO3)cc2c1	4
COc1ccc(OC)c(C(O)CNC(=O)CN)c1 (stereo unspecified)	2
CNC(=O)C(=NNc1ccc(C)cc1)C(C)=O	5
CCOc1ccc(N(CCCC(=O)O)C(=O)c2ccc(Cl)cc2)cc1	5
Cc1cc2cccnc2n(-c2cccc(C(F)(F)F)c2)c1=O	3
C=C(C=CCC(O)C(O)C(O)CC=CC=CC(O)CC1OC(CC(O)C(O)CC2OC(C(O)C(O)CCC(O)C=CC(C)C(O)CC3(O)OC(CC(O)CCCCCCCC45CC(C)CC(C)(O4)C(CC(C)CCCCCC(O)C(O)C(O)C(O)C(O)C4OC(CC(O)C(O)C(C)=CC(O)CC(C)C(O)C(=O)NC=CC(=O)NCCCO)C(O)C(O)C4O)O5)C(O)C(O)C3O)CC(O)C2O)C(O)C(O)C1O)CCC(O)C(O)C(O)C(C)CC1OC(C=CC(O)C(O)CC2CC3CC(O2)C(CCC2OC(CN)CC2O)O3)C(O)C(O)C1O (stereo unspecified)	1
CC1Oc2cc(C(=O)C=Cc3ccc(Cl)cc3)ccc2N(C)C1=O (stereo unspecified)	5
CCC(=O)O[C@]1(C(=O)SCF)[C@H](C)C[C@H]2C3C[C@H](F)C4=CC(=O)C=C[C@]4(C)[C@@]3(F)[C@@H](O)C[C@@]21C (stereo partly specified)	5
Cc1cc(-n2nc3ccc(Cl)cc3n2)c(O)c(C(C)(C)C)c1	5
